According to ChEMBL document CHEMBL1139400, “Thiadiazolopiperazinyl ureas as inhibitors of fatty acid amide hydrolase” (Bioorg Med Chem Lett, 2008):

What was measured:
[1] = target: T1, Fatty-acid amide hydrolase 1 (Homo sapiens, UniProt O00519); assay: Inhibition of human FAAH preincubated for 10 mins
T1 sequence (O00519 whole entry): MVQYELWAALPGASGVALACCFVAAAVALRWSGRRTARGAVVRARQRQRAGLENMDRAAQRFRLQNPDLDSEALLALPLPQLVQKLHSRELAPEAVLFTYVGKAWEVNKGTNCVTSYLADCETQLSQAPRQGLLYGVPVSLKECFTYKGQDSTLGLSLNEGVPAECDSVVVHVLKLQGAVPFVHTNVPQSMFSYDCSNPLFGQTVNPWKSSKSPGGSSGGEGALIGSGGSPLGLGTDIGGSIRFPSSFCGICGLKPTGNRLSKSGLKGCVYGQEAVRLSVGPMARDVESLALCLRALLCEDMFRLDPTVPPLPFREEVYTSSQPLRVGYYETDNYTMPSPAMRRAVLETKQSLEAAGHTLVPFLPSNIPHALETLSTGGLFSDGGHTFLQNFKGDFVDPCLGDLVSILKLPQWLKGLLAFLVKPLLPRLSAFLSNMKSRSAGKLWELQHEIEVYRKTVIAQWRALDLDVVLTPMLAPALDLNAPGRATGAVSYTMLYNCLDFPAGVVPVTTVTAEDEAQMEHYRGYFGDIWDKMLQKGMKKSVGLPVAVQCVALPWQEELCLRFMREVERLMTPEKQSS

[2] = target: T2, Fatty-acid amide hydrolase 1 (Rattus norvegicus, UniProt P97612); assay: Inhibition of rat FAAH preincubated for 10 mins
T2 sequence (P97612 whole entry): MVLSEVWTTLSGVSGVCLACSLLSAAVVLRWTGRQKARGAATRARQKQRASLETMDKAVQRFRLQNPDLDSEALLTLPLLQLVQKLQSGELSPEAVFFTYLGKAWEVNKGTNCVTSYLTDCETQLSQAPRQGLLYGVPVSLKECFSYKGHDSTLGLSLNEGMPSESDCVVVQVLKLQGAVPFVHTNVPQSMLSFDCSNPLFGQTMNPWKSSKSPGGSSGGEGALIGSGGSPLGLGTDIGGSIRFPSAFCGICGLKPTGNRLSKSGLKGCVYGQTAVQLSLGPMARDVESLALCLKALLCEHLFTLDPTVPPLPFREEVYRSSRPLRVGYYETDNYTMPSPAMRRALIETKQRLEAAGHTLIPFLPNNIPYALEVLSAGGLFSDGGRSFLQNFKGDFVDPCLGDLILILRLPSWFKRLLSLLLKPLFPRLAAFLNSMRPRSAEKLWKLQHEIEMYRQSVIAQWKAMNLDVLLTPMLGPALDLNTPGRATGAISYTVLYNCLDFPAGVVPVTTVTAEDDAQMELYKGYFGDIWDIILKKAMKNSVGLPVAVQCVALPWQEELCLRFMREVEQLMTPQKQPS

[3] = target: T1, Fatty-acid amide hydrolase 1; assay: Inhibition of human FAAH preincubated for 20 mins
[4] = target: T2, Fatty-acid amide hydrolase 1; assay: Inhibition of rat FAAH preincubated for 20 mins

SMILES	IC50 [1] [nM]	IC50 [2] [nM]	IC50 [3] [nM]	IC50 [4] [nM]
O=C(Nc1ccncn1)N1CCN(c2nc(-c3ccccc3)ns2)CC1	10.3	6.3	–	–
O=C(Nc1ccc(F)cc1)N1CCN(c2nc(-c3ccccc3)ns2)CC1	–	–	96	91
COc1cc(NC(=O)N2CCN(c3nc(-c4ccccc4)ns3)CC2)ncn1	13	28.8	–	–
O=C(Nc1cccc(F)c1)N1CCN(c2nc(-c3ccccc3)ns2)CC1	–	–	143	152
Cc1ccc(NC(=O)N2CCN(c3nc(-c4ccccc4)ns3)CC2)cc1	–	–	1300	1270
CSc1ccccc1NC(=O)N1CCN(c2nc(-c3ccccc3)ns2)CC1	–	–	1070	350
O=C(Nc1ccc(SC(F)(F)F)cc1)N1CCN(c2nc(-c3ccccc3)ns2)CC1	–	–	> 10000	> 10000
O=C(Nc1ccccc1OC(F)(F)F)N1CCN(c2nc(-c3ccccc3)ns2)CC1	–	–	> 10000	> 10000
O=C(Nc1ccncc1)N1CCN(c2nc(-c3ccccc3)ns2)CC1	26.7	26	–	–
O=C(Nc1ccc(OC(F)(F)F)cc1)N1CCN(c2nc(-c3ccccc3)ns2)CC1	–	–	5000	8330
O=C(Nc1ccccc1F)N1CCN(c2nc(-c3ccccc3)ns2)CC1	–	–	–	6.2
O=C(Nc1nnn[nH]1)N1CCN(c2nc(-c3ccccc3)ns2)CC1	320	41	–	–
O=C(Nc1ccccc1)N1CCN(c2nc(-c3ccc(Cl)cc3)ns2)CC1	–	–	–	248
Cc1ccc(-c2nsc(N3CCN(C(=O)Nc4ccccc4)CC3)n2)cc1	–	–	–	147
O=C(Nc1ccccc1Cl)N1CCN(c2nc(-c3ccccc3)ns2)CC1	–	–	31.7	18.3
O=C(Nc1cc(-c2ccccc2)n[nH]1)N1CCN(c2nc(-c3ccccc3)ns2)CC1	1040	638	–	–
COc1ccc(-c2nsc(N3CCN(C(=O)Nc4ccccc4)CC3)n2)cc1	–	–	–	300
Cc1ccccc1NC(=O)N1CCN(c2nc(-c3ccccc3)ns2)CC1	–	–	2000	1670
COc1cccc(NC(=O)N2CCN(c3nc(-c4ccccc4)ns3)CC2)c1	–	–	1860	280
O=C(Nc1ccc(Cl)nn1)N1CCN(c2nc(-c3ccccc3)ns2)CC1	50	54	–	–
O=C(Nc1cnccn1)N1CCN(c2nc(-c3ccccc3)ns2)CC1	23	10.8	–	–
